Read-outs that look alike come from different tables or passages of the source.
Key:
[1] = test system: COLO 205 doxorubicin-sensitive colonic adenocarcinoma cells; assay: Antiproliferative MTT assay, COLO 205; format: cell-based, human; conditions: for IC50: MTT, 72 h, four parallel measurements, read-out: IC50 (µM) ± SD COLO 205; for SI MRC-5/COLO 205: selectivity index: IC50 in non-tumour cells / IC50 in cancer cells
Experimental: (§1) The human colon adenocarcinoma cells (COLO 205 sensitive and the resistant COLO 320/MDR-LRP expressing P-gp), namely, ATCC-CCL-220.1 (COLO 320) and CCL-222 (COLO 205) were cultured in RPMI 1640 medium supplemented with 10% heat-inactivated fetal bovine serum, 2 mM L-glutamine, 1 mM Na pyruvate, and 100 mM HEPES. HeLa (ATCC® CCL-2™) human cervix carcinoma cells, and MRC-5 (ATCC® CCL-171) human embryonal lung fibroblast cells were cultured in Eagle’s minimal essential medium (EMEM, containing 4.5 g/L glucose) supplemented with a non-essential amino acid mixture, a selection of vitamins, and 10% heat-inactivated fetal bovine serum. The cell lines were detached with 0.25% trypsin and 0.02% EDTA for 5 min at 37 °C.
(§2) In the study, human colonic adenocarcinoma cell lines (doxorubicin-sensitive COLO 205 and multidrug resistant COLO 320 colonic adenocarcinoma cells), HeLa human cervix carcinoma cells and the MRC-5 non-cancerous human embryonic lung fibroblast cell line were used to determine the effect of the compounds on cell growth. The effects of increasing concentrations of compounds on cell growth were tested in 96-well flat-bottomed microtiter plates. […] The compounds were diluted in a volume of 100 μL of the medium. The adherent cells were cultured in 96-well flat-bottomed microtiter plates using EMEM supplemented with 10% heat-inactivated fetal bovine serum. The density of the cells was adjusted to 6 × 10^3 cells in 100 µL per well, the cells were seeded prior to the assay for 24 h at 37 °C, with 5% CO2, and then the medium was removed from the plates, and fresh medium (100 µL per well) was added to the cells. The effects of increasing concentrations of compounds on cell proliferation were tested in 96-well flat-bottomed microtiter plates. The compounds were diluted in the appropriate medium; the dilutions of compounds were performed in separate plates and then added to the cells. The starting concentration of the compounds was 100 µM, and two-fold serial dilution was performed (concentration range: 100–0.19 µM). The culture plates were incubated at 37 °C for 72 h; at the end of the incubation period, 20 µL of MTT (thiazolyl blue tetrazolium bromide, Sigma) solution (from a stock solution of 5 mg/mL) was added to each well. After incubation at 37 °C for 4 h, 100 µL of sodium dodecyl sulfate (SDS) (Sigma) solution (10% in 0.01 M HCI) was added to each well, and the plates were further incubated at 37 °C overnight. Cell growth was determined by measuring the optical density (OD) at 540/630 nm, with a Multiscan EX ELISA reader (Thermo Labsystems, Cheshire, WA, USA). Inhibition of cell growth (expressed as IC50: inhibitory concentration that reduces the growth of the cells exposed to the tested compounds by 50%) was determined from the sigmoid curve where 100 − ((ODsample − ODmedium control)/(ODcell control − ODmedium control)) × 100 was plotted against the logarithm of the compound concentrations. Curves were fitted by Prism5 software (GraphPad Software Inc., San Diego, CA, USA) from four parallel experiments for each cell line. Results are expressed in terms of IC50, defined as the inhibitory dose that reduces the proliferation of the cells exposed to the tested compounds by 50% [20].

[2] = test system: HeLa human cervix carcinoma cells; assay: Antiproliferative MTT assay, HeLa; format: cell-based; conditions: for IC50: MTT, 72 h, four parallel measurements, read-out: IC50 (µM) ± SD HeLa; for SI MRC-5/HeLa: selectivity index: IC50 in non-tumour cells / IC50 in cancer cells
Experimental: as §1, §2

[3] = test system: MRC-5 human embryonal lung fibroblast cells; assay: Antiproliferative MTT assay, MRC-5 non-tumor cells; format: cell-based; conditions: four parallel measurements, read-out: IC50 (µM) ± SD MRC-5
Experimental: as §1, §2

HeLa cells [4] = assay: Drug combination assay with doxorubicin (MTT, CompuSyn); format: cell-based, human; design: key to CI (combination index): CI <1 synergy, ~1 additivity, >1 antagonism; conditions: for Interaction: interaction type with doxorubicin; for CI (combination index): with doxorubicin, 72 h, average over drug ratios at IC50
Experimental: The HeLa cell line was used to perform this assay. Doxorubicin (2 mg/mL, Teva Pharmaceuticals, Budapest, Hungary) was serially diluted in the horizontal direction, starting with 8.6 µM. The resistance modifier was subsequently diluted in the vertical direction, and the starting concentration was determined based on the IC50. The dilutions of doxorubicin were made in a horizontal direction in 100 µL, and the dilutions of the resistance modifiers occurred vertically in the microtiter plate in a 50 µL volume. The compounds and doxorubicin were diluted separately. […] Then, diluted compounds with a volume of 50 μL were added to each well to reach a final volume of 200 μL. The plates were incubated for 72 h at 37 °C in a CO2 incubator, and at the end of the incubation period, the cell growth was determined by the MTT staining method, as described earlier. Drug interactions were evaluated using CompuSyn software. Each dose-response curve (for individual agents as well as combinations) was fit to a linear model using the median effect equation in order to obtain the median effect value (corresponding to the IC50) and slope (m). The goodness-of-fit was assessed using the linear correlation coefficient, r, and only data from analysis with r > 0.90 are presented. The extent of the interaction between drugs was expressed using the combination index in which a CI value close to 1 indicates additivity, while CI < 1 is defined as synergy and CI > 1 as antagonism.

[5] = test system: HeLa, COLO 205, and COLO 320 cancer cells; assay: Antiproliferative MTT assay, summary over the tested cell lines; format: cell-based; conditions: Homo sapiens, 72 h, COLO 205, COLO 320, read-out: IC50 values, range over the cancer cell lines
Experimental: as §1
In the study, human colonic adenocarcinoma cell lines (doxorubicin-sensitive COLO 205 and multidrug resistant COLO 320 colonic adenocarcinoma cells), HeLa human cervix carcinoma cells and the MRC-5 non-cancerous human embryonic lung fibroblast cell line were used to determine the effect of the compounds on cell growth. The effects of increasing concentrations of compounds on cell growth were tested in 96-well flat-bottomed microtiter plates. […] The compounds were diluted in a volume of 100 μL of the medium. […] Cell growth was determined by measuring the optical density (OD) at 540/630 nm, with a Multiscan EX ELISA reader (Thermo Labsystems, Cheshire, WA, USA). […]

[6] = test system: COLO 320/MDR-LRP multidrug resistant colonic adenocarcinoma cells expressing P-gp; assay: Antiproliferative MTT assay, COLO 320; conditions: for IC50: read-out: IC50 (µM) ± SD COLO 320; for SI MRC-5/COLO 320: selectivity index: IC50 in non-tumour cells / IC50 in cancer cells
Experimental: as §1, §2

[7] = Stability of the hemiacetal, 1H NMR measured again; format: physicochemical; conditions: 1H NMR measured again one day later; two sets of signals approx. 1:0.6
Description: Compound 2 (ensifolin B) has the molecular formula C25H24O4 compatible with the fragment ion in the HRESIMS at m/z 369.1497 [M − H2O − H]^− (calcd for 369.1491). […] The structure of the phenanthrene skeleton was assembled through 2D NMR analysis. It was concluded that the phenanthrene core of compound 2 is identical to sylvaticin A, a 9,10-dihydrophenanthrene recently described from Luzula sylvatica. However, NMR characteristics of the H2-11 oxymethylene in 2 are different compared to those of sylvaticin A, including its […] shifted carbon (δC 66.2 vs. 60.2) and magnetically inequivalent protons (δH 5.19 and 5.09, vs. δH 5.01, 2H, s). […] Similar to compound 1, ensifolin B (2) also has an asymmetric carbon atom (C-1′). The specific rotation value [α ]D25 of the compound was +2 (c 0.1, MeOH). When compound 2 was injected onto a chiral HPLC column, it eluted with two well-separated peaks with a peak ratio area of 1:1. […] Intermolecular hemiacetals are intrinsically unstable with respect to their parent alcohols and aldehydes. […] Considering that sylvaticin A and 4-hydroxybenzaldehyde, the minor compounds of the mixture were also isolated from other fractions (compound 16 and 18, respectively), it is unclear whether these phytochemicals originally presented in the harvested plant material or whether they are just by-products of the decomposition of compound 2.

[8] = test system: superoxide anion generation; design: method as in PMID 27940118; conditions: anti-inflammatory activity ref 16; cited from earlier work
HeLa cells [9] = test system: HeLa cells; design: method as in PMID 33064469; conditions: HeLa ref 15; read-out: IC50 antiproliferative activity against HeLa cells; cited from earlier work
human neutrophils = test system: human neutrophils; design: method as in PMID 27940118; conditions: fMLP/CB activation ref 16, read-out: IC50 elastase release; cited from earlier work
[10] = MTT, 72 h, four parallel measurements

Row | Compound | activity relative to positive control cisplatin ([1]; COLO 205 cells) | IC50 ([1]; Homo sapiens, COLO 205, 72 h) [µM] | IC50 [1] [µM] | IC50 ([2]; Homo sapiens, HeLa) [µM] | SI MRC-5/HeLa [2] | IC50 ([3]; Homo sapiens, MRC5, 72 h) [µM] | Interaction (HeLa cells [4]) | CI (combination index) (HeLa cells [4]) | IC50 [5] [µM] | IC50 ([6]; Homo sapiens, COLO 320, 72 h) [µM] | SI MRC-5/COLO 320 [6] | SI MRC-5/COLO 205 [1] | stability of initially pure compound [7] | IC50 [2] [µM] | IC50 ([3]; 72 h) [µM] | IC50 [6, 10] [µM] | IC50 [8] [µM] | IC50 (HeLa cells [9]) [nM] | IC50 (human neutrophils) [µM]
1 | Cc1cc(O)c2c(c1C(O)COc1cc(-c3cc(=O)c4c(O)cc(O)cc4o3)ccc1O)CCc1c-2ccc(O)c1C (stereo not shown) [Compound 1, Ensifolin A] | more than ten-fold | 3.9 | 3.86 ± 0.08 | 8.25 ± 0.51 | 2.34 | 19.3 ± 0.54 | strong synergism (0.1 < CI < 0.3: strong synergism) | 0.272 | 3.9 to 12.7 | 12.71 ± 0.05 | 1.52 |  |  |  |  |  |  |  | 
2 | C=Cc1cc(C)cc2c1-c1ccc(O)c(COC(O)c3ccc(O)cc3)c1CC2 (stereo not shown) [Compound 2, Ensifolin B] |  | 45.6 ± 0.5 |  | 33.49 ± 0.29 | 1.55 | 51.87 ± 0.14 | synergism (0.3 < CI < 0.7: synergism) | 0.584 |  | 37.24 ± 0.11 | 1.39 | 1.14 | showed signs of decomposition |  |  |  |  |  | 
3 | C=Cc1cc(C)cc2c1-c1ccc(O)c(C)c1C(O)C2 (stereo not shown) [Compound 3, 2,10-dihydroxy-1,7-dimethyl-5-vinyl-9,10-dihydrophenanthrene] |  | > 100 |  | > 100 |  | > 100 | synergism (0.3 < CI < 0.7: synergism) | 0.580 |  | > 100 |  |  |  |  |  |  |  |  | 
4 | C=Cc1cc(C)cc2c1-c1ccc(O)c(COC)c1CC2 [Compound 4, Ensifolin D] |  | 65.6 ± 0.78 |  | 19.4 ± 0.33 | >5.15 | > 100 | synergism (0.3 < CI < 0.7: synergism) | 0.643 |  | 61.6 ± 9.95 | >1.62 | >1.52 |  |  |  |  |  |  | 
5 | C=Cc1c(C)cc(O)c2c1CCc1c-2ccc(O)c1C [Compound 5, 2,5-dihydroxy-1,7-dimethyl-8-vinyl-9,10-dihydrophenanthrene] |  | 31.2 ± 0.66 |  | 27.5 ± 1.19 | 1.61 | 44.3 ± 0.61 | very strong synergism (CI < 0.1: very strong synergism) |  | 25.2 to 31.2 | 25.2 ± 0.92 | 1.76 | 1.42 |  |  |  |  |  |  | 
6 | C=Cc1c(CO)cc(O)c2c1CCc1c-2ccc(O)c1C [Compound 6, Ensifolin F] |  | > 100 |  | 74.3 ± 2.98 | >1.35 | > 100 | strong synergism (0.1 < CI < 0.3: strong synergism) | 0.159 |  | 93.71 ± 0.14 | >1.07 |  |  |  |  |  |  |  | 
7 | CC(=O)c1c(C)cc(O)c2c1CCc1c-2ccc(O)c1C [Compound 7, Ensifolin G] |  | > 100 |  | 75.6 ± 0.94 | >1.32 | > 100 | synergism (0.3 < CI < 0.7: synergism) | 0.568 |  | > 100 |  |  |  |  |  |  |  |  | 
8 | C=Cc1c(C)cc(O)c2c1CCc1c-2cc(-c2cc3c(c(C)c2O)CCc2c(C=C)c(C)cc(O)c2-3)c(O)c1C [Compound 10, Ensifolin J] |  | 44.5 ± 1.22 |  | 33.5 ± 1.89 | 1.72 | 57.8 ± 1.32 | synergism (0.3 < CI < 0.7: synergism) | 0.454 |  | 42.8 ± 1.28 | 1.35 | 1.30 |  |  |  |  |  |  | 
9 | C=Cc1c(C)cc(O)c2c1CCc1c-2cc(-c2c(O)c(C)c(C=C)c3ccc4c(C)c(O)ccc4c23)c(O)c1C [Compound 11, Ensifolin K] |  | 31.4 ± 0.72 |  | 29.5 ± 0.31 | 1.12 | 33.16 ± 0.05 | strong synergism (0.1 < CI < 0.3: strong synergism) | 0.112 |  | 37.8 ± 1.05 | 0.88 | 1.06 |  |  |  |  |  |  | 
10 | C=Cc1c(C)cc(O)c2c1CCc1c-2cc(-c2c(C)c(C=C)c3c(c2O)-c2ccc(O)c(C)c2CC3)c(O)c1C [Compound 12, Ensifolin L] |  | 26.9 ± 1.19 |  | 30.22 ± 0.21 | 1.67 | 50.4 ± 1.3 | strong synergism (0.1 < CI < 0.3: strong synergism) | 0.120 |  | 37.4 ± 2.13 | 1.35 | 1.87 |  |  |  |  |  |  | 
11 | C=Cc1cc(C)cc2c1-c1ccc(O)c(C)c1CC2 [Compound 14, 2-hydroxy-1,7-dimethyl-5-vinyl-9,10-dihydrophenanthrene] |  | 32.9 ± 0.59 |  | 58.1 ± 1.2 | 1.05 | 60.89 ± 0.25 | synergism (0.3 < CI < 0.7: synergism) | 0.579 |  | 52.4 ± 0.77 | 1.16 | 1.85 |  |  |  |  |  |  | 
12 | C#Cc1c(C)c(O)cc2c1CCc1c-2ccc(O)c1C [Compound 16, juncatrin B] |  |  | 34.4 ± 0.57 |  | 3.91 |  | synergism (0.3 < CI < 0.7: synergism) | 0.682 |  |  | 0.80 | 0.76 |  | 6.65 ± 0.1 | 26 ± 0.85 | 32.5 ± 0.75 |  |  | 
13 | O=Cc1ccc(O)cc1 [Compound 18, 4-hydroxybenzaldehyde] |  | > 100 |  | > 100 |  | > 100 |  |  |  | > 100 |  |  |  |  |  |  |  |  | 
14 | O=c1cc(-c2ccc(O)c(O)c2)oc2cc(O)cc(O)c12 [Compound 19, luteolin] |  | > 100 |  | > 100 |  | > 100 |  |  |  | > 100 |  |  |  |  |  |  |  |  | 
15 | N.N.[Cl][Pt][Cl] [cisplatin, reference compound] |  |  | 41.7 ± 1.62 |  |  |  |  |  |  |  |  |  |  | 3.62 ± 0.16 | 2.36 ± 0.33 |  |  |  | 
16 | COc1cccc2c1C(=O)c1c(O)c3c(c(O)c1C2=O)C[C@@](O)(C(=O)CO)C[C@@H]3O[C@H]1C[C@H](N)[C@H](O)[C@H](C)O1 [doxorubicin] |  | 1.36 ± 0.36 |  | 0.04 ± 0.004 |  | 0.53 ± 0.06 |  |  |  | 0.22 ± 0.004 |  |  |  |  |  |  |  |  | 
17 | C=Cc1c(C)c(O)cc2c1-c1ccc(O)c(C)c1CC2 [juncusol, reference compound] |  |  |  |  |  |  |  |  |  |  |  |  |  |  |  |  | 3.1 |  | 
18 | juncuenin B [Compound 15] |  |  | 37.1 ± 0.57 |  | 5.37 |  | slight synergism (0.7 < CI < 0.9: moderate to slight synergism) | 0.864 |  |  | 1.17 | 0.97 |  | 6.67 ± 0.03 | 35.9 ± 1.23 | 30.5 ± 0.93 | 4.9 | 2900 | 5.5
19 | sylvaticin A [Compound 17] |  |  | 56.7 ± 0.75 |  | >9.47 |  | strong synergism (0.1 < CI < 0.3: strong synergism) | 0.279 |  |  | >1.73 | >1.76 |  | 10.56 ± 0.09 | > 100 | 57.7 ± 0.92 |  |  | 

Source: PMC8949129, “Unique Phenanthrenes from Juncus ensifolius and Their Antiproliferative and Synergistic Effects with the Conventional Anticancer Agent Doxorubicin against Human Cancer Cell Lines” (Pharmaceutics, 2022)
